Among the test systems are 786-0 renal; ACHN renal; EKVX NSCLC; HCT-15 colon; HOP-62 NSCLC; HOP-92 NSCLC; MDA-MB-231 breast; NCI-H226 lung; OVCAR-3 ovarian; RPMI-8226 leukemia; RXF 393 renal; SF-268 CNS; SF-295 CNS; SK-MEL-5 melanoma; SNB-19 CNS; SR leukemia; SW-620 colon; UACC-257 melanoma; UACC-62 melanoma.
What all share (assay): inhibition of tumour cell growth, NCI panel, 48 h

Where “and” joins values, the source holds several entries; their conditions need not be identical. Equal entries are not always repeated.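 Tested at 5 concentrations; 48 h exposure; 96-well plates; endpoints linearly interpolated, else capped at highest concentration. Abbreviation: GI50, concentration required for 50% inhibition of growth. At the TGI there is no net growth.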

With `CN(C)CCCN1c2ccc([N+](=O)[O-])cc2CCc2cc([N+](=O)[O-])ccc21`, the TGI is 24.5 µM and 27.5 µM with 786-0 renal; 23.5 µM and 29 µM with ACHN renal; 28.5 µM and 29.4 µM in the assay on EKVX NSCLC; 33 µM and 33.6 µM in the assay with HCT-15 colon; 30.4 µM and 25.6 µM in the assay with HOP-62 NSCLC; 20 µM and 18 µM in the assay with HOP-92 NSCLC. The TGI is 30.3 µM and 22.6 µM in the assay with MDA-MB-231 breast; 32.8 µM and 33.4 µM in the assay on NCI-H226 lung; 30.2 µM and 30.5 µM in the assay with OVCAR-3 ovarian; 55.3 µM and 34.1 µM with RPMI-8226 leukemia; 19.9 µM and 25.6 µM in the assay on RXF 393 renal; 30.2 µM and 29 µM in the assay on SF-268 CNS. Further, the TGI with SF-295 CNS is 29.4 µM and 29.8 µM; with SK-MEL-5 melanoma, 29.5 µM and 23.1 µM; in the assay on SNB-19 CNS it was 32 µM and 29.1 µM; in the assay on SR leukemia, > 100 µM and 31.4 µM; in the assay with SW-620 colon, 34 µM and 33.2 µM; in the assay with UACC-257 melanoma, 28.7 µM and 27.4 µM. For the same molecule, in the assay on UACC-62 melanoma, the TGI is 26.3 µM and 28.2 µM. For the same molecule, the GI50 in the assay with SR leukemia is 30.4 µM and 13.1 µM.
In the case of `CCn1c(O)c(C=Nc2ccccc2)s/c1=N/Nc1nc(-c2ccc(O)c(O)c2)cs1`, the TGI in the assay on 786-0 renal, with ACHN renal, in the assay with EKVX NSCLC, in the assay with HCT-15 colon, with HOP-62 NSCLC and in the assay with HOP-92 NSCLC was greater than 100 µM throughout. The TGI in the assay on MDA-MB-231 breast is greater than 100 µM; in the assay with NCI-H226 lung it was greater than 100 µM; in the assay with OVCAR-3 ovarian it was 49 µM; in the assay on RPMI-8226 leukemia, 46.6 µM; in the assay with RXF 393 renal it was greater than 100 µM; with SF-268 CNS, greater than 100 µM. In addition, the TGI in the assay on SF-295 CNS was 85.6 µM; with SK-MEL-5 melanoma, greater than 100 µM; in the assay with SNB-19 CNS, greater than 100 µM; in the assay with SR leukemia, 15.9 µM; with SW-620 colon it was greater than 100 µM; in the assay with UACC-257 melanoma, greater than 100 µM. In the assay on UACC-62 melanoma, this molecule returned a TGI greater than 100 µM.
Regarding `c1ccc2c3nnc(c2c1)SCCCSc1nnc(c2ccccc12)SCCCS3`, the TGI is greater than 100 µM with 786-0 renal; greater than 100 µM with ACHN renal; greater than 100 µM in the assay with EKVX NSCLC; greater than 100 µM with HCT-15 colon; 52.8 µM in the assay on HOP-62 NSCLC; 94.3 µM with HOP-92 NSCLC. For the same molecule, the TGI in the assay with MDA-MB-231 breast was 48.6 µM; in the assay with NCI-H226 lung, 56.6 µM; in the assay on OVCAR-3 ovarian, greater than 100 µM; with RPMI-8226 leukemia, greater than 100 µM; in the assay on RXF 393 renal it was 94 µM; in the assay with SF-268 CNS, greater than 100 µM. In addition, the TGI with SF-295 CNS is greater than 100 µM; with SK-MEL-5 melanoma it was 72.2 µM; with SNB-19 CNS, greater than 100 µM; in the assay with SR leukemia, greater than 100 µM; in the assay with SW-620 colon it was greater than 100 µM; in the assay on UACC-257 melanoma, greater than 100 µM. Besides, in the assay on UACC-62 melanoma, the TGI was found to be 88.8 µM.
On to `COC(=O)/C=C1\CCCN1CCc1cc2c(cc1CC#N)OCO2`, for which the TGI in the assay with 786-0 renal, in the assay with ACHN renal, in the assay on EKVX NSCLC, in the assay with HCT-15 colon, with HOP-62 NSCLC and with HOP-92 NSCLC was greater than 100 µM in each case. Moreover, the TGI is greater than 100 µM in the assay on MDA-MB-231 breast; greater than 100 µM in the assay on NCI-H226 lung; 69.1 µM in the assay with OVCAR-3 ovarian; greater than 100 µM with RPMI-8226 leukemia; greater than 100 µM with RXF 393 renal; greater than 100 µM in the assay on SF-268 CNS. Also, the TGI was greater than 100 µM with SF-295 CNS; 81.2 µM in the assay with SK-MEL-5 melanoma; greater than 100 µM with SNB-19 CNS; greater than 100 µM in the assay on SR leukemia; greater than 100 µM with SW-620 colon; greater than 100 µM in the assay with UACC-257 melanoma. Besides, the TGI with UACC-62 melanoma is greater than 100 µM.
Take `COCCOC1=C(Cl)C(=O)c2c(O)ccc(O)c2C1=O`: the TGI came out at 3.23 µM with 786-0 renal; 2.96 µM in the assay on ACHN renal; 11.5 µM in the assay with EKVX NSCLC; 3.32 µM in the assay with HCT-15 colon; 9.94 µM in the assay on HOP-62 NSCLC; 2.2 µM in the assay on HOP-92 NSCLC. Besides, the TGI in the assay with MDA-MB-231 breast amounted to 3.2 µM; with NCI-H226 lung it was 28.9 µM; in the assay on OVCAR-3 ovarian, 3.08 µM; with RPMI-8226 leukemia, 1.75 µM; in the assay with RXF 393 renal, 1.7 µM; with SF-268 CNS, 13 µM. The TGI in the assay on SF-295 CNS was 35.1 µM; with SK-MEL-5 melanoma it was 5.15 µM; in the assay on SNB-19 CNS, 29.2 µM; with SR leukemia, 3.19 µM; in the assay on SW-620 colon, 1.4 µM; with UACC-257 melanoma it was 4.85 µM. In the assay on UACC-62 melanoma, this molecule returned a TGI of 10.7 µM.
On to `COCOc1c(C(OCOC)c2cnc(Sc3ccccc3)n2C)ccc(OC)c1OC` (centres undefined), for which the TGI in the assay with 786-0 renal, in the assay on ACHN renal, in the assay with EKVX NSCLC, in the assay with HCT-15 colon, in the assay with HOP-62 NSCLC and in the assay with HOP-92 NSCLC was greater than 100 µM in each case. For the same molecule, the TGI in the assay on MDA-MB-231 breast, in the assay on NCI-H226 lung, with OVCAR-3 ovarian, in the assay with RPMI-8226 leukemia, with RXF 393 renal and in the assay with SF-268 CNS was greater than 100 µM throughout. The TGI in the assay with SF-295 CNS, in the assay on SK-MEL-5 melanoma, in the assay on SNB-19 CNS, with SR leukemia, in the assay on SW-620 colon and with UACC-257 melanoma was greater than 100 µM in each case. This molecule also displayed a TGI in the assay with UACC-62 melanoma greater than 100 µM.
In the case of `NCCNCCCNC(=O)c1cc(-c2ccccc2)nc2ccccc12`, the TGI was 61.8 µM with 786-0 renal; greater than 100 µM in the assay on ACHN renal; greater than 100 µM in the assay with EKVX NSCLC; greater than 100 µM in the assay with HCT-15 colon; greater than 100 µM with HOP-62 NSCLC; 55.4 µM in the assay on HOP-92 NSCLC. Further, the TGI in the assay on MDA-MB-231 breast, in the assay on NCI-H226 lung, in the assay with OVCAR-3 ovarian, in the assay on RPMI-8226 leukemia, with RXF 393 renal and in the assay with SF-268 CNS was greater than 100 µM each time. Moreover, the TGI in the assay on SF-295 CNS was greater than 100 µM; in the assay with SK-MEL-5 melanoma, 30.5 µM; in the assay with SNB-19 CNS, greater than 100 µM; in the assay on SR leukemia, 82.3 µM; in the assay with SW-620 colon, greater than 100 µM; in the assay on UACC-257 melanoma, 51.5 µM. Also, the TGI in the assay on UACC-62 melanoma was found to be 46.3 µM.

For the origin of these results see PubChem BioAssay (NCI).
